Results: patent US7226761B2, “Manufacture of five-carbon sugars and sugar alcohols” (Danisco Sweeteners Oy, priority 1992, dated 2007)

Tests used:
[1] = tested on: TKL1 deficient strain H1764; test: Growth of TKL1 deficient strain on galactose plates containing D-xylulose; assay type: cell-based, Saccharomyces cerevisiae; details: 2% galactose plates
Method: The genomic library of Z. rouxii was transformed into the TKL1 deficient strain of Saccharomyces cerevisiae (H1764, see example 12) and 10,000 independent clones were obtained. We have observed that the TKL1 deficient strain H1764 is unable to grow on 2% galactose plates containing 0.3% or higher concentrations of D-xylulose (probably due to toxic concentrations of 5-carbon sugar phosphates accumulating). The independent clones were plated with 0.5% D-xylulose (synthetic complete medium with 2% galactose, 0.5% xylulose and 3% xylose lacking leucine for selection of the library plasmid) and screened for complementation of growth on these plates.

[2] = tested on: strains H1915 and H1916; details: approximately 0.5 mM H2O2, 1.5 h; both strains
Method: Strains H1915 and H1916 were cultivated to logarithmic growth phase. The cells were collected and suspended into synthetic complete medium lacking histidine and uracil to an average density of OD600 20. Glucose was added to a final concentration of 20 g/l and a sample was taken immediately. The cells were incubated in a 30° C. shaker (250 rpm) for 2.5 h and the first sample was taken. Then H2O2 was added to a concentration of approximately 0.5 mM and incubation continued for an additional 1.5 h, when the second sample was taken. The OD600 was measured, cells were removed by centrifugation, and the growth medium samples were analyzed by HPLC (Waters device, Aminex HPX-87H Ion Exclusion Column, see example 17).

O=C(CO)[C@@H](O)[C@H](O)CO [D-xylulose]
D-xylulose concentration at which the strain is unable to grow [1]: ≥ 0.3%

OO [hydrogen peroxide]
increase of total polyol and pentose production [2]: 2 fold
